In article PMC8621208, “Antiseptic 9-Meric Peptide with Potency against Carbapenem-Resistant Acinetobacter baumannii Infection” (International Journal of Molecular Sciences, 2021):
Where two headings read alike, the source gives them in different places. Where a SMILES comes first, the peptide text is derived from it. [ ]: non-standard residue; d: D form.

Columns and labels:
[1] = test system: A. baumannii; test: MIC, broth dilution; format: cell-based, Acinetobacter baumannii KCCM 40203; settings: 16 h, MH media, read-out: Minimal Inhibitory Concentration (MIC)
Excerpt: (§1) Escherichia coli KCTC 1682 was obtained from the Korean Collection for Type Cultures (KCTC) (Jeongeup-si, Korea), Acinetobacter baumannii KCCM 40203, Pseudomonas aeruginosa KCCM 11328 from the Korea Culture Center of Microorganisms (KCCM) (Seoul, Korea). Klebsiella pneumoniae NCCP 16054 were obtained from the National Culture Collection for Pathogens (NCCP) (Osong, Korea). Additionally, two carbapenem-resistant E. coli (CREC E1 and E2), 11 carbapenem-resistant A. baumannii (CRAB C0–C10) and two carbapenem-resistant K. pneumoniae (CRKP K1 and K2) were isolated from the patients, who presented symptoms and signs of infection at Korea University Anam Hospital (Seoul, Korea) (IRB registration no. 2020AN0157, 4 March 2021). CRAB C0–C10 have the OXA-23 gene with carbapenem-resistance.
(§2) The minimum inhibitory concentrations (MIC) were determined using broth dilution method. Briefly, all the mentioned bacterial strains were grown overnight at 37 °C by Muller–Hinton (MH) media. […] After 16 h incubation, the bacterial growth was read at 600 nm using a SpectraMAX microplate reader (Molecular Devices, San Jose, CA, USA).

[2] = test system: E. coli; format: cell-based, Escherichia coli; settings: peptide pre-incubated 6 h at 37 °C
Experimental: (§3) All the peptides at their MICs were pre-incubated with proteolytic enzymes such as trypsin and α-chymotrypsin (10,000:1; peptide: enzyme ratio) for 6 h at 37 °C. Then, 100 μL of peptide-protease cocktail was added to the 100 µL bacterial suspension (E. coli, A. baumannii and CRAB C0, 2 × 10^5 CFU/mL) and further incubated for 16 h at 37 °C. Bacterial suspension without peptide and protease served as negative control. The analysis was repeated at three times using independent experiments, and the degree of bacterial growth was measured at 600 nm using a microplate reader.

[3] = test system: K. pneumoniae; test: microbe, parasite or virus in culture; settings: K. pneumoniae; 16 h, MH media
Excerpt: as §1, §2

[4] = test system: CRAB C1; test: microbe, parasite or virus in culture; settings: CRAB C1
Excerpt: as §1, §2

[5] = test system: CRAB C8; test: microbe, parasite or virus in culture; settings: CRAB C8
Excerpt: as §1, §2

[6] = test system: A. baumannii; format: cell-based, Acinetobacter baumannii; settings: peptide pre-incubated 6 h at 37 °C
Experimental: as §3

[7] = test system: CRKP K1; test: MIC, broth dilution; format: cell-based, carbapenem-resistant K. pneumoniae; settings: read-out: Minimal Inhibitory Concentration (MIC)
Excerpt: as §1, §2

[8] = test system: CRKP K2; test: MIC, broth dilution; format: cell-based, carbapenem-resistant K. pneumoniae; settings: read-out: Minimal Inhibitory Concentration (MIC)
Excerpt: as §1, §2

[9] = test system: RAW 264.7 murine macrophage cells; test: Cytotoxicity, WST-8 assay; format: cell-based, mouse; settings: 100 μM, 24 h
Experimental: (§4) Figure 6 In vitro cytotoxicity of Pro9-3 and their analogues. (A) Dose-response curve represent the hemolytic activity of peptides against sheep red blood cell (sRBC). Concentration-dependent (0–100 μM) toxic effects induced by peptides on (B) RAW 264.7 murine macrophage cells and (C) human kidney (HK)-2 cells for 24 h. Melittin was used as a control. Statistical analysis was performed using two-way analysis of variance (ANOVA) with Dunnett’s comparison test. Values are expressed as mean ± SEM of three independent experiments. * p < 0.05, ** p < 0.01, *** p < 0.001, and ns, non-significant compared with the control.
(§5) RAW 264.7 mouse macrophage cells and Human kidney (HK)-2 cells were obtained from Korean cell line bank (Seoul, Korea) and the cells were maintained in DMEM culture media (Thermo Fischer Scientific Inc., Waltham, MA, USA) supplemented with 10% fetal bovine serum, 1% penicillin/streptomycin at 37 °C in a humidified 5% CO2 incubator. The cytotoxicity of the peptides was analyzed using WST-8 cell proliferation assay (Biomax Co, Ltd., Seoul, Korea), and the experiment was performed according to the kit protocol. Briefly, cells (1 × 10^4) were seeded in 96-well plate and the peptides treatment (0–100 μM) were initiated at 80% confluency and then for 24 h. After incubation, WST-8 reagent was added and the change in absorbance was read at 450 nm against reagent blank, and values are expressed as percent cell survival.

[10] = test system: CRAB C2; test: MIC, broth dilution; format: cell-based, carbapenem-resistant A. baumannii; settings: read-out: Minimal Inhibitory Concentration (MIC)
Excerpt: as §1, §2

[11] = test system: CRAB C6; test: MIC, broth dilution; format: cell-based, carbapenem-resistant A. baumannii; settings: read-out: Minimal Inhibitory Concentration (MIC)
Excerpt: as §1, §2

[12] = test system: CRAB C9; test: MIC, broth dilution; format: cell-based, carbapenem-resistant A. baumannii; settings: read-out: Minimal Inhibitory Concentration (MIC)
Excerpt: as §1, §2

[13] = test system: CRAB C3; test: MIC, broth dilution; format: cell-based, carbapenem-resistant A. baumannii; settings: read-out: Minimal Inhibitory Concentration (MIC)
Excerpt: as §1, §2

[14] = test system: CRAB C10; test: MIC, broth dilution; format: cell-based, carbapenem-resistant A. baumannii; settings: read-out: Minimal Inhibitory Concentration (MIC)
Excerpt: as §1, §2

[15] = test system: CRAB C0; test: MIC, broth dilution; format: cell-based, carbapenem-resistant A. baumannii; settings: read-out: Minimal Inhibitory Concentration (MIC)
Excerpt: as §1, §2

[16] = test system: CRAB C5; test: MIC, broth dilution; format: cell-based, carbapenem-resistant A. baumannii; settings: read-out: Minimal Inhibitory Concentration (MIC)
Excerpt: as §1, §2

[17] = test system: CRAB C7; test: MIC, broth dilution; format: cell-based, carbapenem-resistant A. baumannii; settings: read-out: Minimal Inhibitory Concentration (MIC)
Excerpt: as §1, §2

[18] = test system: CRAB C4; test: MIC, broth dilution; format: cell-based, carbapenem-resistant A. baumannii; settings: read-out: Minimal Inhibitory Concentration (MIC)
Excerpt: as §1, §2

[19] = test system: sheep red blood cells (sRBC); test: Hemolytic assay; format: cell-based; settings: 100 μM
Experimental: The peptide-induced toxicity was determined by hemolytic against Sheep red blood cells (sRBC). Briefly, Fresh sRBC were washed at least three times with phosphate-buffered saline (PBS) and the debris were removed by centrifugation (1000× g for 5 min, 4 °C). All the peptides including melittin control (0.2–100 μM) and positive control (1% (v/v) triton X-100) were incubated with 4% (v/v) sRBC for 1 h at 37 °C followed by centrifugation at 1000× g for 5 min. The supernatant was measured at 405 nm using a microplate reader.

[20] = test system: P. aeruginosa; test: MIC, broth dilution; format: cell-based, Pseudomonas aeruginosa KCCM 11328; settings: 16 h, MH media, read-out: Minimal Inhibitory Concentration (MIC)
Excerpt: as §1, §2

[21] = test system: human kidney (HK)-2 cells; test: Cytotoxicity, WST-8 assay; format: cell-based; settings: 100 μM, 24 h
Experimental: as §4, §5

CC[C@@H](C)[C@@H](NC(=O)[C@@H](Cc1c[nH]c2ccccc12)NC(=O)[C@@H](CCCNC(=N)N)NC(=O)[C@H](N)CCCNC(=N)N)C(=O)N[C@H](C)C(=O)N[C@H](CC(C)C)C(=O)N[C@H](Cc1c[nH]c2ccccc12)C(=O)N[C@H](CC(C)C)C(=O)N[C@H](CCCNC(=N)N)C(N)=O [R-Pro9-3D, rrwialwlr-NH2] (H-[dR][dR][dW][dI][dA][dL][dW][dL][dR]-NH2)
9.6%: Toxicity in human kidney (HK)-2 cells [21]
20.3%: Toxicity in RAW 264.7 cells [9]
8 µM: Minimal Inhibitory Concentration (MIC) ([2]; E. coli + Trypsin) | Minimal Inhibitory Concentration (MIC) ([2]; E. coli + α-Chymotrypsin) | Minimal Inhibitory Concentration (MIC) [3] | Minimal Inhibitory Concentration (MIC) [4] | MIC [8] | MIC [13] | MIC [20]
4 µM: MIC [1] | Minimal Inhibitory Concentration (MIC) [5] | Minimal Inhibitory Concentration (MIC) ([6]; A. baumannii + Trypsin) | Minimal Inhibitory Concentration (MIC) ([6]; A. baumannii + α-Chymotrypsin) | MIC [10] | MIC [11] | MIC [12] | MIC [14] | MIC [15] | MIC [16] | MIC [17] | MIC [18]
1.2%: Hemolytic activity [19]
16 µM: MIC [7]
